Assay results published in US20260285853A1, “COMPOUNDS AND METHODS FOR MODULATING SPLICING” (REMIX THERAPEUTICS INC., priority 2023, published 2026).
pIC50: −log10 of the molar value. Where two headings read alike, the source gives them in different places.

Columns and labels:
Assay type in all cases: cell-based
[1] = tested on: MYB mRNA; assay: Splicing RT-qPCR assay (THP), Table 2A
[2] = tested on: SH-SY5Y (human neuroblastoma) cells; assay: Cell viability, Cell Titer Glo 2.0 assay; conditions: read-out: Viability SHSY5Y.3 GI50
Outline: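 SH-SY5Y neuroblastoma cells are exposed to test compounds for 72 hours at 37 °C and 5% CO2, with final DMSO held at 0.1%. Cell viability is then measured with the CellTiter-Glo 2.0 assay.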

[3] = tested on: HTT mRNA; assay: Splicing RT-qPCR assay (THP), Table 2A
[4] = tested on: MYB mRNA; assay: Gene panel canonical junction qPCR assay, decrease in CJ mRNA, Table 3
Outline: (§1)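 A673 cells were plated, left to adhere for 24 h, then dosed; K562 cells were plated in 96- or 384-well format and dosed directly. Both were incubated 24 h at 37 °C with an 11-point 3-fold series (top 10 uM final). Canonical junction mRNA was then read by cDNA synthesis and qPCR.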

[5] = tested on: HTT mRNA; assay: as above
Outline: as §1

[6] = Table 2A (THP), AJ mRNA increase, read-out: MYB AJ (increase in alternative junction mRNA, AC50)
[7] = Table 2A (THP), CJ mRNA decrease, read-out: MYB CJ (decrease in canonical junction mRNA, IC50)
[8] = Table 2A (THP), AJ mRNA increase, read-out: HTT AJ (increase in alternative junction mRNA, AC50)
[9] = Table 2A (THP), CJ mRNA decrease, read-out: HTT CJ (decrease in canonical junction mRNA, IC50)
[10] = decrease in canonical junction (CJ) mRNA, gene panel qPCR, Table 3
[11] = Table 2A, THP, MYB alternative junction (AJ) mRNA, read-out: MYB AJ (AC50, increase in alternative junction mRNA)
[12] = Table 2A, THP, MYB canonical junction (CJ) mRNA, read-out: MYB CJ (IC50, decrease in canonical junction mRNA)
[13] = Table 2A, THP, HTT alternative junction (AJ) mRNA, read-out: HTT AJ (AC50, increase in alternative junction mRNA)
[14] = Table 2A, THP, HTT canonical junction (CJ) mRNA, read-out: HTT CJ (IC50, decrease in canonical junction mRNA)
[15] = decrease in CJ mRNA levels, canonical junction qPCR, gene panel

Row | Compound | AC50 [1, 6] [nM] | pIC50 [1, 7] | GI50 [2] [nM] | AC50 [3, 8] [nM] | pIC50 [3, 9] | pIC50 [4, 10] | pIC50 [5, 10] | AC50 [1, 11] [nM] | pIC50 [1, 12] | AC50 [3, 13] [nM] | pIC50 [3, 14] | pIC50 [4, 15] | pIC50 [5, 15]
1 | CCNC1CCN(c2ccc(C(=O)Nc3cn4cc(C)nc4cc3OC)c3nn(C)cc23)CC1 [Compound 323, 4-[4-(ethylamino)-1-piperidyl]-N-(7-methoxy-2-methyl-imidazo[1,2-a]-pyridin-6-yl)-2-methyl-indazole-7-carboxamide 2,2,2-trifluoroacetate] | 100 to 1000 | 6.00 to 7.00 | 1000 to 10000 | 1000 to 10000 | 5.00 to 6.00 | 6.00 to 7.00 | 5.00 to 6.00 |  |  |  |  |  | 
2 | COc1cc2c(N3CCC(NC4CC4)CC3)ccc(C(=O)Nc3cn4cc(C)nc4c(F)c3OC)n2n1 [Compound 688, 4-[4-(cyclopropylamino)-1-piperidyl]-N-(8-fluoro-7-methoxy-2-methyl-imidazo[1,2-a]pyridin-6-yl)-2-methoxy-pyrazolo[1,5-a]pyridine-7-carboxamide] |  |  | < 100 |  |  |  |  | < 100 | > 7.00 | 100 to 1000 | > 7.00 | > 7.00 | > 7.00
3 | COc1nc2c(C(=O)Nc3cc(F)c4nn(C)cc4c3)ccc(N3CCN[C@@H](CO)C3)c2s1 [Compound 743, (R)—N-(7-fluoro-2-methyl-2H-indazol-5-yl)-7-(3-(hydroxymethyl)piperazin-1-yl)-2-methoxybenzo[d]thiazole-4-carboxamide 2,2,2-trifluoroacetate] |  |  | < 100 |  |  |  |  | < 100 | > 7.00 | < 100 | > 7.00 | > 7.00 | > 7.00
4 | Cc1cn2cc(NC(=O)c3c(F)cc(NCC4CCNCC4)c4cn(C)nc34)nc2c(C)n1 [Compound 465, N-(6,8-dimethylimidazo[1,2-a]pyrazin-2-yl)-6-fluoro-2-methyl-4-(4-piperidylmethylamino)indazole-7-carboxamide] | > 10000 | < 5.00 | 100 to 1000 | > 10000 | < 5.00 | < 5.00 | < 5.00 |  |  |  |  |  | 
5 | COc1nc2c(C(=O)Nc3ccc4nn(C)cc4c3F)ccc(N3C[C@H](C)N[C@@H](C)C3)c2s1 [Compound 727, 7-((3S,5S)-3,5-dimethylpiperazin-1-yl)-N-(4-fluoro-2-methyl-2H-indazol-5-yl)-2-methoxybenzo[d]thiazole-4-carboxamide 2,2,2-trifluoroacetate] |  |  | < 100 |  |  |  |  | < 100 | > 7.00 | 100 to 1000 | 6.00 to 7.00 | > 7.00 | 6.00 to 7.00
6 | CNCC1CCN(c2ccc(C(=O)Nc3cn4cc(C)nc(C)c4n3)c3nn(C)cc23)CC1 [Compound 532] | 100 to 1000 | 6.00 to 7.00 | 100 to 1000 | 100 to 1000 | 6.00 to 7.00 | 6.00 to 7.00 | 6.00 to 7.00 |  |  |  |  |  | 
7 | CCNC1CCN(c2ccc(C(=O)Nc3cn4cc(C)nc(C)c4n3)c3nc(OC)sc23)CC1 [Compound 670, N-(6,8-dimethyl-imidazo[1,2-a]-pyrazin-2-yl)-7-[4-(ethylamino)-1-piperidyl]-2-methoxy-1,3-benzothiazole-4-carboxamide] |  |  | > 10000 |  |  |  |  | > 10000 | < 5.00 | > 10000 | 5.00 to 6.00 | < 5.00 | 5.00 to 6.00
8 | Cc1cn2cc(NC(=O)c3ccc(N(C)C4CCNCC4)c4cn(C)nc34)nc2c(C)n1 [Compound 564] | 100 to 1000 | 6.00 to 7.00 | 100 to 1000 | 100 to 1000 | 6.00 to 7.00 | 6.00 to 7.00 | 6.00 to 7.00 |  |  |  |  |  | 
9 | CNC1CCN(c2ccc(C(=O)Nc3cc4cn(C)nc4cc3OC)c3nn(C)cc23)C1 (stereo not shown) [Compound 518] | < 100 | 6.00 to 7.00 | 1000 to 10000 | 1000 to 10000 | 5.00 to 6.00 | 6.00 to 7.00 | 5.00 to 6.00 |  |  |  |  |  | 
10 | COc1nc2c(C(=O)Nc3ccc4c(c3)CCCO4)ccc(N3C[C@H](C)N[C@@H](C)C3)c2s1 [Compound 760] |  |  | 1000 to 10000 |  |  |  |  | > 10000 | < 5.00 | > 10000 | < 5.00 | < 5.00 | < 5.00
